Here are results for 8 compounds from patent publication US5300491A, “Treatment of protozoal infection” (priority 1992, dated 1994).

Data set [1] has as its system Trichomonas vaginalis. The experiment in a line: Trichomonas vaginalis assay of other divalent metal salts of bacitracin (MIC). It is filed as cell-based. As to the method: (§1) All isolates were treated with either bacitracin or zinc bacitracin.
(§2) Prior to being diluted with the medium, the bacitracins were initially solubilized in water to 250 mg/ml. The zinc salt was solubilized in acidified water (60 μl HC1/ml). Duplicate plates of each isolate were prepared. one set of plates was exposed to an aerobic environment; and, the second set was exposed to an anaerobic environment. An Oxoid HP 11 anaerobic gas chamber and BR 38 gas generating kit were used to produce the anaerobic environment.
The procedure of Example IV was repeated, substituting bacitracin salts of the following metals for zinc bacitracin: nickel, cadmium, cobalt, manganese, copper and iron. The MLCs of the bacitracin salts were out of range. However, the MICs indicate that, with the exception of ferrous bacitracin, complexation with a divalent metal salt enhanced the activity of bacitracin.

Data set [2] has as its system Giardia lamblia. It is filed as cell-based. Particulars: Portland isolate; anaerobic; 24 hours; two lines of values. As to the method:
A Portland isolate of G. lamblia was treated with bacitracin and zinc bacitracin according to the procedure of Example IV. An Oxoid HP 11 anaerobic gas chamber and BR 38 gas generating kit were used to produce an anaerobic environment. […] The parasites were incubated in the presence of the treating reagent for 2 4 hours. The viability of the parasites was based on morphology and motility.

Data set [3] concerns Tritrichomonas gallinae. Description: Tritrichomonas gallinae assay (MLC). It is filed as cell-based. The conditions noted are these: isolate GH85; anaerobic. The protocol: A single T. gallinae isolate was collected and treated with bacitracin or zinc bacitracin in accordance with the procedure of Example IV. Duplicate plates of the isolate were prepared. one plate was exposed to an aerobic environment. The second plate was exposed to an anaerobic environment.

The test system of data set [4] is E. histolvtica. Particulars: fifty South African patients; 2.4 g daily for 5 days; cited from earlier work.
Data set [5] concerns Trichomonas vaginalis. The experiment in a line: Trichomonas vaginalis assay (MLC, aerobic and anaerobic). The data set is classed as cell-based. The protocol:
as §1, §2

Data set [6] concerns T. foetus. Particulars: cited from earlier work; for side effects: in vivo.

Converted amounts (≈) assume the structure as drawn. “And” between values parts separate entries of the source, which are not always exact repeats. Identical values can stand only once. Like-named read-outs stand apart in the source and are kept apart here.

Broadly, the MIC is the lowest concentration found to suppress growth. Consider Cadmium Bacitracin, for which the values for the MIC in data set [1] (T. vaginalis isolate 1910) and in data set [1] (T. vaginalis isolate UCH1) were 150 µg/mL and 310 µg/mL, respectively.
As to `Cc1ncc([N+](=O)[O-])n1CCO` [Metronidazole], in data set [2], the “MLC (first of the two columns per drug)” value was below 1 µg/mL. For the same compound, in data set [2], the “MLC (second of the two columns per drug)” value was 2 µg/mL and < 1 µg/mL. For the same compound, the MLC in data set [3] was 2 µg/mL (≈ 11.7 µM); in data set [5] (isolate 1031, metronidazole-sensitive, aerobic), 40 µg/mL (≈ 234 µM); in data set [5] (isolate 1031, metronidazole-sensitive, anaerobic), 4 µg/mL (≈ 23.4 µM); in data set [5] (isolate 1043, metronidazole-sensitive, aerobic), 20 µg/mL (≈ 117 µM); in data set [5] (isolate 1043, metronidazole-sensitive, anaerobic), below 1 µg/mL; in data set [5] (isolate 1044, metronidazole-sensitive, aerobic), below 10 µg/mL. The MLC in data set [5] (isolate 1044, metronidazole-sensitive, anaerobic) is below 1 µg/mL; in data set [5] (isolate 1064, metronidazole-sensitive, anaerobic) it was below 1 µg/mL; in data set [5] (isolate 1065, metronidazole-sensitive, aerobic), below 10 µg/mL; in data set [5] (isolate 1065, metronidazole-sensitive, anaerobic) it was below 1 µg/mL; in data set [5] (isolate 1165, metronidazole-sensitive, aerobic), 40 µg/mL (≈ 234 µM); in data set [5] (isolate 1165, metronidazole-sensitive, anaerobic), below 1 µg/mL. In addition, the MLC in data set [5] (isolate 1910, metronidazole-sensitive, aerobic) stood at 40 µg/mL (≈ 234 µM); in data set [5] (isolate 1910, metronidazole-sensitive, anaerobic), 2 µg/mL (≈ 11.7 µM); in data set [5] (isolate 6950, metronidazole-sensitive, aerobic), 20 µg/mL (≈ 117 µM); in data set [5] (isolate 6950, metronidazole-sensitive, anaerobic) it was 2 µg/mL (≈ 11.7 µM); in data set [5] (isolate 89532.2, metronidazole-insensitive, aerobic), 200 µg/mL (≈ 1170 µM); in data set [5] (isolate 89532.2, metronidazole-insensitive, anaerobic) it was 2 µg/mL (≈ 11.7 µM). The MLC in data set [5] (isolate 90576, metronidazole-insensitive, aerobic) came to 80 µg/mL (≈ 467 µM); in data set [5] (isolate 90576, metronidazole-insensitive, anaerobic) it was 2 µg/mL (≈ 11.7 µM); in data set [5] (isolate CDC85, metronidazole-insensitive, aerobic) it was 200 µg/mL (≈ 1170 µM); in data set [5] (isolate CDC85, metronidazole-insensitive, anaerobic) it was 20 µg/mL (≈ 117 µM); in data set [5] (isolate IR78, metronidazole-insensitive, aerobic), 200 µg/mL (≈ 1170 µM); in data set [5] (isolate IR78, metronidazole-insensitive, anaerobic), 4 µg/mL (≈ 23.4 µM). Moreover, the MLC was 60 µg/mL (≈ 351 µM) in data set [5] (isolate PHLS289, metronidazole-insensitive, aerobic); 8 µg/mL (≈ 46.7 µM) in data set [5] (isolate PHLS289, metronidazole-insensitive, anaerobic); 60 µg/mL (≈ 351 µM) in data set [5] (isolate STH-1, metronidazole-insensitive, aerobic); 8 µg/mL (≈ 46.7 µM) in data set [5] (isolate STH-1, metronidazole-insensitive, anaerobic); 40 µg/mL (≈ 234 µM) in data set [5] (isolate UCH-1, metronidazole-sensitive, aerobic); 4 µg/mL (≈ 23.4 µM) in data set [5] (isolate UCH-1, metronidazole-sensitive, anaerobic). For the same compound, the MLC in data set [5] (isolate UCH-2, metronidazole-sensitive, aerobic) was below 10 µg/mL; in data set [5] (isolate UCH-2, metronidazole-sensitive, anaerobic), 2 µg/mL (≈ 11.7 µM); in data set [5] (isolate UCH-M1, metronidazole-sensitive, aerobic), 20 µg/mL (≈ 117 µM); in data set [5] (isolate UCH-M1, metronidazole-sensitive, anaerobic) it was 4 µg/mL (≈ 23.4 µM); in data set [5] (isolate UOB-1, metronidazole-sensitive, aerobic), 20 µg/mL (≈ 117 µM); in data set [5] (isolate UOB-1, metronidazole-sensitive, anaerobic), below 1 µg/mL. Further, the “treatment failure with persistent disease” value in data set [4] is listed as 55%.
For Nickel Bacitracin, the results for the MIC in data set [1] (T. vaginalis isolate 1910) and in data set [1] (T. vaginalis isolate UCH1) were 2500 µg/mL and 1250 µg/mL, respectively.
With `Cc1ncc([N+](=O)[O-])n1C` [dimetridazole], the side effects result is “respiratory difficulty, ataxia and lung collapse” in data set [6] (iv); “rumen stasis and anorexia” in data set [6] (po). Moreover, the effectiveness result in data set [6] (multiple oral doses) and in data set [6] (single intravenous administration) was “moderately effective” throughout.
Take Ferrous Bacitracin: the MIC in data set [1] (T. vaginalis isolate 1910) and in data set [1] (T. vaginalis isolate UCH1) was above 10000 µg/mL each time.
With Manganese Bacitracin, the MIC in data set [1] (T. vaginalis isolate 1910) worked out at 1260 µg/mL; in data set [1] (T. vaginalis isolate UCH1), 150 µg/mL.
For the compound Copper Bacitracin, the MIC in data set [1] (T. vaginalis isolate 1910) is 1250 µg/mL; in data set [1] (T. vaginalis isolate UCH1) it was 2500 µg/mL.
The like results for Cobalt Bacitracin were, in that order, 1250 µg/mL and 1250 µg/mL.
